biological target: T1, KATP channels (Homo sapiens, UniProt O60706); experiment: Potassium Channel Assay (FLIPR membrane potential, KATP channel opening); assay type: cell-based; details: TE671 human medulloblastoma cells, Membrane Potential Assay Dye, room temperature
T1 construct: TE671 human medulloblastoma cells were obtained from ATCC; host or cells: TE671 human medulloblastoma cells
Method: TE671 human medulloblastoma cells were obtained from ATCC and grown in Dulbecco's modified Eagle's medium (DMEM) supplemented with 10% fetal bovine serum, 100 U/ml penicillin and 100 U/ml streptomycine.
The day before testing, the cells were plated in black 96-well plates at 50K/well. On the day of testing, the growth media was removed, then 100 μl of FLIPR buffer (20 mM HEPES, 120 mM NaCl, 2 mM KCl, 2 mM CaCl2, 1 mM MgCl2, 5 mM Glucose) and 100 μl of Membrane Potential Assay Dye (Molecular Devices) dissolved in FLIPR buffer were added to each well. The cells were incubated at room temperature for 15 to 30 min.
The effect of test compounds on KATP channels were evaluated on a fluorometric imaging plate reader (FLIPR, Molecular Devices) at room temperature. After a baseline period, 50 μl of 5× stock solution of test compound prepared in FLIPR buffer was added and fluorescence change was monitored for 3 minutes. After this reading, glyburide, a KATP channel blocker, was added to a final concentration of 5 μM to check the specificity of the test compound as a KATP channel opener. Hyperpolarization resulting from KATP channel opening was observed as a decrease in fluorescence intensity.

T1 sequence (O60706 1-1549 isoform O60706-2): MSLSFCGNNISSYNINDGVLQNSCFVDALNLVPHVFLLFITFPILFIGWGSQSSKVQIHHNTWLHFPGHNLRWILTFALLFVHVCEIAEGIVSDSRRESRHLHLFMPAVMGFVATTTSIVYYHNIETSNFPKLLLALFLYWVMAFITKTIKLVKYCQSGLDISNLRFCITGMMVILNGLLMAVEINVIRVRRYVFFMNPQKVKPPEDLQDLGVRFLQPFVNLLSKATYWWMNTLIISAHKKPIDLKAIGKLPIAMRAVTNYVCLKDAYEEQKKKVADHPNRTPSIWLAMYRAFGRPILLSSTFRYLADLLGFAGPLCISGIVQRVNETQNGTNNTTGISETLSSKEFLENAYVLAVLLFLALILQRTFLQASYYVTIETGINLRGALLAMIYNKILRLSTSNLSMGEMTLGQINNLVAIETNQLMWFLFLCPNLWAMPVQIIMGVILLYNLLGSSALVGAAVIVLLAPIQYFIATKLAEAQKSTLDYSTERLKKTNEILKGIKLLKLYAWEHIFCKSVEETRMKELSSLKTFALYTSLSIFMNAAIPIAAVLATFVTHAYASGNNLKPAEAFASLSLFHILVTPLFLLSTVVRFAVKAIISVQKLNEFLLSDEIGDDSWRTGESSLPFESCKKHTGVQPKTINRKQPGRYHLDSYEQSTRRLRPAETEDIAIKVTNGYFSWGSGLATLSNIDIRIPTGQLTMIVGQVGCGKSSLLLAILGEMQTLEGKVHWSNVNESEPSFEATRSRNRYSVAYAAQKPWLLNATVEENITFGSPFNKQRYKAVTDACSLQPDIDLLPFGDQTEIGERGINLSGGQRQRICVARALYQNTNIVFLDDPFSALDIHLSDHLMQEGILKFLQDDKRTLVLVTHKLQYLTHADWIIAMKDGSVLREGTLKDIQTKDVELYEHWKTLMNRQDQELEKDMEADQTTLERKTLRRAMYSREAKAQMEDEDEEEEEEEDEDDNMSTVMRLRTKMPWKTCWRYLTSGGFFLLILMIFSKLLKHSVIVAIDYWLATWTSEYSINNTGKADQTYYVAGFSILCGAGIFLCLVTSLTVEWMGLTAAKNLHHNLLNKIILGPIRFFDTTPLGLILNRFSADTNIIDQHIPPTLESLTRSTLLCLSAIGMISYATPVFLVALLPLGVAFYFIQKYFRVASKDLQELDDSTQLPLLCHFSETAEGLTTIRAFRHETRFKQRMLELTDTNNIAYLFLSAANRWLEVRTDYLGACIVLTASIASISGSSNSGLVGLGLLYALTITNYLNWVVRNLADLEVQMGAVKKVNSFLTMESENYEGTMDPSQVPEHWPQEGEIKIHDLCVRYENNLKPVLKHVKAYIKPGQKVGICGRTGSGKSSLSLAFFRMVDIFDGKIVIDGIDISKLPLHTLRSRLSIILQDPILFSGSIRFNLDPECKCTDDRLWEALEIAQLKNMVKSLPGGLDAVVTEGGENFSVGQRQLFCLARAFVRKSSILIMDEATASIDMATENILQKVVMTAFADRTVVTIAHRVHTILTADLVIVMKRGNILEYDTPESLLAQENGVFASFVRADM
T1 sequence (Q14654 whole entry partner): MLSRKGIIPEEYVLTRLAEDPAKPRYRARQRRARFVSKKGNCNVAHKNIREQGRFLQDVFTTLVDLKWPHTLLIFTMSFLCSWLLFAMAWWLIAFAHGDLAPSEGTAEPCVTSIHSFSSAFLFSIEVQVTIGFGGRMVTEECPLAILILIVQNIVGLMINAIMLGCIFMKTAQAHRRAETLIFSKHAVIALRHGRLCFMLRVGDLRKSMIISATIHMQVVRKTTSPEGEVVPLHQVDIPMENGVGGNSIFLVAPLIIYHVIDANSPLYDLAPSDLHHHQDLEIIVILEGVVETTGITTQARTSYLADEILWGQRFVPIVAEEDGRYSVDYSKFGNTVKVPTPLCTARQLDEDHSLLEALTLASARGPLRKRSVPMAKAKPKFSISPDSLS

EC50 [µM] | SMILES
> 30 | CCOC(=O)c1cnc2cc(C(F)(F)F)ccc2c1-c1cccc(C#N)c1 [Compound 1, 4-(3-Cyano-phenyl)-7-trifluoromethyl-quinoline-3-carboxylic acid ethyl ester]
> 30 | CCOC(=O)c1cnc2cc(C(F)(F)F)ccc2c1-c1cc(C)cc(OC)c1 [Compound 2, 4-(3-Methoxy-5-methyl-phenyl)-7-trifluoromethyl-quinoline-3-carboxylic acid ethyl ester]
> 30 | CCOC(=O)c1cnc2cc(C(F)(F)F)ccc2c1-c1cc(C(F)(F)F)cc(C(F)(F)F)c1 [Compound 3, 4-(3,5-Bis-trifluoromethyl-phenyl)-7-trifluoromethyl-quinoline-3-carboxylic acid-ethyl ester]
> 30 | CCOC(=O)c1ccc(-c2c(C(=O)OCC)cnc3cc(C(F)(F)F)ccc23)cc1 [Compound 4, 4-(4-Ethoxycarbonyl-phenyl)-7-trifluoromethyl-quinoline-3-carboxylic acid ethyl ester]
> 30 | CCOC(=O)c1cnc2cc(C(F)(F)F)ccc2c1-c1ccc(-c2ccccc2)cc1 [Compound 5, 4-Biphenyl-4-yl-7-trifluoromethyl-quinoline-3-carboxylic acid ethyl ester]
> 30 | CCOC(=O)c1cnc2cc(C(F)(F)F)ccc2c1-c1ccccc1 [Compound 6, 4-Phenyl-7-trifluoromethyl-quinoline-3-carboxylic acid ethyl ester]
> 30 | CCOC(=O)c1cnc2cc(C(F)(F)F)ccc2c1-c1cccc(C(C)=O)c1 [Compound 7, 4-(3-Acetyl-phenyl)-7-trifluoromethyl-quinoline-3-carboxylic acid ethyl ester]
> 30 | CCOC(=O)c1cnc2cc(C(F)(F)F)ccc2c1-c1cc(C(F)(F)F)ccc1F [Compound 8, 4-(2-Fluoro-5-trifluoromethyl-phenyl)-7-trifluoromethyl-quinoline-3-carboxylic acid ethyl ester]
7.73 | CCOC(=O)c1cnc2cc(C(F)(F)F)ccc2c1-c1cc(C=O)ccc1OC [Compound 9, 4-(5-Formyl-2-methoxy-phenyl)-7-trifluoromethyl-quinoline-3-carboxylic acid ethyl ester]
> 30 | CCOC(=O)c1cnc2cc(C(F)(F)F)ccc2c1-c1cccc(C(F)(F)F)c1 [Compound 10, 7-Trifluoromethyl-4-(3-trifluoromethyl-phenyl)-quinoline-3-carboxylic acid ethyl ester]
> 30 | CCOC(=O)c1cnc2cc(C(F)(F)F)ccc2c1-c1cccc(C=O)c1 [Compound 11, 4-(3-Formyl-phenyl)-7-trifluoromethyl-quinoline-3-carboxylic acid ethyl ester]
> 30 | CCOC(=O)c1cnc2cc(C(F)(F)F)ccc2c1-c1cccc(CO)c1 [Compound 12, 4-(3-Hydroxymethyl-phenyl)-7-trifluoromethyl-quinoline-3-carboxylic acid ethyl ester]
> 30 | CCOC(=O)c1cnc2cc(C(F)(F)F)ccc2c1-c1ccc(C)c(C)c1 [Compound 13, 4-(3,4-Dimethyl-phenyl)-7-trifluoromethyl-quinoline-3-carboxylic acid ethyl ester]
4.56 | CCOC(=O)c1cnc2cc(C(F)(F)F)ccc2c1-c1cc(CO)ccc1OC [Compound 14, 4-(5-Hydroxymethyl-2-methoxy-phenyl)-7-trifluoromethyl-quinoline-3-carboxylic acid ethyl ester]
6.27 | CCOC(=O)c1cnc2cc(C(F)(F)F)ccc2c1OS(=O)(=O)C(F)(F)F [Compound 15, 4-Trifluoromethanesulfonyloxy-7-trifluoromethyl-quinoline-3-carboxylic acid ethyl ester]
9.63 | N#Cc1cccc(-c2ccncc2C(O)c2ccccc2)c1 (stereo not shown) [Compound 19, 3-[3-(Hydroxy-phenyl-methyl)-pyridin-4-yl]-benzonitrile]
19.4 | N#Cc1cccc(-c2ccncc2C(O)c2ccc(F)cc2)c1 (stereo not shown) [Compound 20, 3-{3-[(4-Fluoro-phenyl)-hydroxy-methyl]-pyridin-4-yl}-benzonitrile]
23.2 | N#Cc1cccc(-c2ccncc2C(O)c2cccc(F)c2)c1 (stereo not shown) [Compound 21, 3-{3-[(3-Fluoro-phenyl)-hydroxy-methyl]-pyridin-4-yl}-benzonitrile]
15.1 | Cc1ccc(C(O)c2cnccc2-c2cccc(C#N)c2)cc1F (stereo not shown) [Compound 22, 3-{3-[(3-Fluoro-4-methyl-phenyl)-hydroxy-methyl]-pyridin-4-yl}-benzonitrile]
11.4 | N#Cc1cccc(-c2ccncc2C(O)c2ccc(F)c(F)c2)c1 (stereo not shown) [Compound 23, 3-{3-[(3,4-Difluoro-phenyl)-hydroxy-methyl]-pyridin-4-yl}-benzonitrile]
14.5 | N#Cc1cccc(-c2ccncc2C(O)c2ccc(Cl)c(Cl)c2)c1 (stereo not shown) [Compound 24, 3-{3-[(3,4-Dichloro-phenyl)-hydroxy-methyl]-pyridin-4-yl}-benzonitrile]

EC50 [µM] | SMILES
9.82 | N#Cc1cccc(-c2ccncc2C(O)c2cc(Cl)cc(Cl)c2)c1 (stereo not shown) [Compound 25, 3-{3-[(3,5-Dichloro-phenyl)-hydroxy-methyl]-pyridin-4-yl}-benzonitrile]
10.2 | N#Cc1cccc(-c2ccncc2C(O)c2ccc(Cl)cc2)c1 (stereo not shown) [Compound 26, 3-{3-[(4-Chloro-phenyl)-hydroxy-methyl]-pyridin-4-yl}-benzonitrile]
10.7 | CC(C)(C)c1ccc(C(O)c2cnccc2-c2cccc(C#N)c2)cc1 (stereo not shown) [Compound 27, 3-{3-[(4-tert-Butyl-phenyl)-hydroxy-methyl]-pyridin-4-yl}-benzonitrile]
10.2 | COc1ccccc1C(O)c1cnccc1-c1cccc(C#N)c1 (stereo not shown) [Compound 28, 3-{3-[Hydroxy-(2-methoxy-phenyl)-methyl]-pyridin-4-yl}-benzonitrile]
13.7 | COc1cccc(C(O)c2cnccc2-c2cccc(C#N)c2)c1 (stereo not shown) [Compound 29, 3-{3-[Hydroxy-(3-methoxy-phenyl)-methyl]-pyridin-4-yl}-benzonitrile]
> 30 | COc1ccc(C(O)c2cnccc2-c2cccc(C#N)c2)cc1 (stereo not shown) [Compound 30, 3-{3-[Hydroxy-(4-methoxy-phenyl)-methyl]-pyridin-4-yl}-benzonitrile]
15 | Cc1ccccc1C(O)c1cnccc1-c1cccc(C#N)c1 (stereo not shown) [Compound 31, 3-{3-[Hydroxy-(2-methyl-phenyl)-methyl]-pyridin-4-yl}-benzonitrile]
8.48 | Cc1ccc(C(O)c2cnccc2-c2cccc(C#N)c2)cc1 (stereo not shown) [Compound 32, 3-{3-[Hydroxy-(4-methyl-phenyl)-methyl]-pyridin-4-yl}-benzonitrile]
20.8 | CSc1ccc(C(O)c2cnccc2-c2cccc(C#N)c2)cc1 (stereo not shown) [Compound 34, 3-{3-[Hydroxy-(4-methylsulfanyl-phenyl)-methyl]-pyridin-4-yl}-benzonitrile]
> 30 | Cc1cc(C)c(C(O)c2cnccc2-c2cccc(C#N)c2)c(C)c1 (stereo not shown) [Compound 35, 3-{3-[Hydroxy-(2,4,6-trimethyl-phenyl)-methyl]-pyridin-4-yl}-benzonitrile]
> 30 | COc1ccc(F)cc1C(O)c1cnccc1-c1cccc(C#N)c1 (stereo not shown) [Compound 36, 3-{3-[(5-Fluoro-2-methoxy-phenyl)-hydroxy-methyl]-pyridin-4-yl}-benzonitrile]
9.59 | COc1ccc(C(O)c2cnccc2-c2cccc(C#N)c2)cc1F (stereo not shown) [Compound 37, 3-{3-[(3-Fluoro-4-methoxy-phenyl)-hydroxy-methyl]-pyridin-4-yl}-benzonitrile]
> 30 | Cc1ccc(F)cc1C(O)c1cnccc1-c1cccc(C#N)c1 (stereo not shown) [Compound 38, 3-{3-[(5-Fluoro-2-methyl-phenyl)-hydroxy-methyl]-pyridin-4-yl}-benzonitrile]
10.5 | N#Cc1cccc(-c2ccncc2C(O)C(F)(F)F)c1 (stereo not shown) [Compound 39, 3-[3-(2,2,2-Trifluoro-1-hydroxy-ethyl)-pyridin-4-yl]-benzonitrile]
17.4 | O=C(c1ccccc1)c1ccncc1C(O)c1ccccc1 (stereo not shown) [Compound 43, [3-(Hydroxy-phenyl-methyl)-pyridin-4-yl]-phenyl-methanone]
17.4 | CN(C)c1ccc(C(O)c2cnccc2C(=O)c2ccccc2)cc1 (stereo not shown) [Compound 44, {3-[(4-Dimethylamino-phenyl)-hydroxy-methyl]-pyridin-4-yl}-phenyl-methanone]
11.6 | COc1ccc(C(O)c2cnccc2C(=O)c2ccccc2)cc1F (stereo not shown) [Compound 45, {3-[(3-Fluoro-4-methoxy-phenyl)-hydroxy-methyl]-pyridin-4-yl}-phenyl-methanone]
12.1 | COc1ccc(OC)c(C(O)c2cnccc2C(=O)c2ccccc2)c1 (stereo not shown) [Compound 46, {3-[(2,5-Dimethoxy-phenyl)-hydroxy-methyl]-pyridin-4-yl}-phenyl-methanone]
5.09 | O=C(c1ccccc1)c1ccncc1C(O)c1cccc(F)c1 (stereo not shown) [Compound 47, {3-[(3-Fluoro-phenyl)-hydroxy-methyl]-pyridin-4-yl}-phenyl-methanone]
14.3 | N#Cc1cccc(C(=O)c2ccncc2C(O)c2ccccc2)c1 (stereo not shown) [Compound 48, 3-[3-(Hydroxy-phenyl-methyl)-pyridine-4-carbonyl]-benzonitrile]

same assay, conditions: TE671 human medulloblastoma cells, Membrane Potential Assay Dye, room temperature, test concentration not given

% Stimulation [%] | SMILES
2 | CCOC(=O)c1cnc2cc(C(F)(F)F)ccc2c1-c1cccc(C(C)=O)c1 [Compound 7, 4-(3-Acetyl-phenyl)-7-trifluoromethyl-quinoline-3-carboxylic acid ethyl ester]
2 | CCOC(=O)c1cnc2cc(C(F)(F)F)ccc2c1-c1cccc(C=O)c1 [Compound 11, 4-(3-Formyl-phenyl)-7-trifluoromethyl-quinoline-3-carboxylic acid ethyl ester]
20 | CCOC(=O)c1cnc2cc(C(F)(F)F)ccc2c1-c1cccc(CO)c1 [Compound 12, 4-(3-Hydroxymethyl-phenyl)-7-trifluoromethyl-quinoline-3-carboxylic acid ethyl ester]
0 | CCOC(=O)c1cnc2cc(C(F)(F)F)ccc2c1-c1ccc(C)c(C)c1 [Compound 13, 4-(3,4-Dimethyl-phenyl)-7-trifluoromethyl-quinoline-3-carboxylic acid ethyl ester]
7 | COc1ccc(C(O)c2cnccc2-c2cccc(C#N)c2)cc1 (stereo not shown) [Compound 30, 3-{3-[Hydroxy-(4-methoxy-phenyl)-methyl]-pyridin-4-yl}-benzonitrile]
